Measured values as given in patent US5830910A (priority 1995, dated 1998).
“Also recorded” adds a separate entry of the source. Read-outs that look alike come from different tables or passages of the source.

How the values were obtained:
Format in all cases: cell-based, rat
[1] = test system: cultured hippocampal neurons; assay: cells; conditions: pretreated 1 hr; 100 μM glutamate, 24 hr
[2] = test system: cultured hippocampal neurons; conditions: 100 nM, added 1 h before 50 μM Aβ; 48 h
Description: (§1) Dissociated embryonic rat hippocampal cell cultures were established and maintained. All procedures conformed with the NIH Guide for the Care and Use of Laboratory Animals and were approved by the University of Kentucky Animal Care and Use Committee. Cultures were maintained on a polyethyleneimine-coated substrate in plastic 35-mm dishes or 96 wall plates (for cell survival studies) or glass-bottom 35-mm dishes (for [Ca^2+ ]i imaging studies). The cell density was ^~ 70-100 cells/mm^2. Cells were maintained in Eagle's minimum essential medium supplemented 10% with fetal bovine serum and containing 20 mM sodium pyruvate. […] Aβ25-35 (Bachem, lot ZJ744) and Aβ1-40 (Bachem, lot ZK600) were stored in the lyophilized form, and stocks were prepared immediately before use by dissolving the peptide at a concentration of 1 mM in sterile distilled water. […] Glutamate and colchicine (Sigma) were prepared as 200-500x stocks in saline. Cytochalasins D and E (Sigma) and calcium ionophore 4-bromo-A23187 (Calbiochem) were prepared as 500x stocks in dimethyl sulfoxide. Vitamin E (α-tocopherol; Sigma) was prepared as a 500x stock in ethanol. Nordihydroguaiaretic acid and FeSo4 were prepared as 500x stocks in sterile water.
(§2) Neuronal survival was quantified by counting viable neurons in the same microscope fields (10x objective) immediately before experimental treatment and at time points after treatment. In addition, cells were grown in 96-well plates and Alamar blue fluorescence (Alamar Laboratories)was quantified by using a fluorescence plate reader. Alamar Blue is a non-fluorescent substrate that, after reduction by cell metabolites, becomes fluorescent. Usually neurons that died in the time intervals (20-48 h) between examination points were absent. Viability of the remaining neurons was assessed by morphological criteria. Neutrons with intact neurites of uniform diameter and a soma with a smooth, round appearance were considered viable, whereas neurons with fragmented neurites and a vacuolated or swollen soma were considered nonviable. Survival values were expressed as percentages of the initial number of neurons present before experimental treatment. Statistical comparisons were made using ANOVA and Scheffe post-hoc tests for pairwise comparisons.
FIG. 12. (A) Cultures were pretreated for 1 h with vehicle 0.2% dimethyl sulfoxide (Control) or 100 nM cytochalasin D (CyD) and were exposed to the indicated concentrations of Aβ25-35 for 48 h. Data are mean and SEM values of determinations made in four separate cultures.
(B) Cultures were pretreated for 1 h with the indicated concentrations of cytochalasin D and then exposed to 50 μM Aβ25-35; parallel cultures were exposed to cytochalasin D alone (Control) . Data are mean and SEM values of determinations made in four separate cultures.
FIG. 14. Cultures were exposed to 100 nM colchicine; 50 μM Aβ; 100 nM colchicine plus 50 μM Aβ; 100 nM cytochalasin E (CyE) plus Aβ (colchicine and cytochalasin E were added 1 h before Aβ); neuronal survival was assessed 48 h later. Data are mean and SEM values of determinations made in four separate cultures. *p<0.01, compared with values for control or colchicine alone. **p<0.01, compared with value for cultures exposed to Aβ alone.

[3] = test system: cultured hippocampal neurons; assay: cells; conditions: for viability at 0.1 µM: Rattus norvegicus, Hippocampal neuron
Description: as §1, §2
Values represent the means and SEM of 4 separate cultures (cell counts) or 4 culture wells (Alamar blue assay). ^a p<0.05 compared to control value. ^b p<0.001 compound to control value. ^c p<0.01 compared to value for glutamate-treated cultures. ^d p<0.005 compared to value for glutamate-treated cultures. ^e p<0.001 compared to value for Aβ-treated cultures. ^f p<0.001 compared to value for cultures treated with 20 μM glutamate. ^g p<0.001 compared to cultures treated with 50 μM Aβ+20 μM glutamate. n.d. not determined.

[4] = test system: cultured hippocampal neurons; conditions: 100 nM cotreated; 50 μM Aβ25-35, 24 hr
[5] = test system: cultured hippocampal neurons; assay: hydrogen peroxide neurotoxicity
Description: as §1
as §2, with “Usually neurons that died in the time intervals (20-48 h) between examination points were absent.” left out
FIG. 15. […] Cultures were pretreated for 1 h with vehicle (Control), 100 nM cytochalasin D (CyD), or 50 μg/ml vitamin E (vE) and then exposed for 20 h to the indicated concentrations of hydrogen peroxide. Data are mean and SEM values of determinations made in four separate cultures.

[6] = test system: growth cone motility of hippocampal neurons; assay: growth cone motility
[7] = test system: cultured hippocampal neurons; assay: iron (FeSO4) neurotoxicity; conditions: 100 nM, 1 h preincubation
Description: as §1, §2
FIG. 8. Cultures were preincubated 1 h in the presence of 0.5% dimethylsulfoxide (control), 100 nM cytochalasin D, 50 μg/ml vitamin E (VitE), or 2 μM nordihydroguairetic acid (NDGA). Cultures were then exposed for 6 h to the indicated concentrations of FeSO4 and neuronal survival was quantified. Values represent the means and SEM of determinations made in four separate cultures. *P<0.001 compared to value for cultures exposed to 100 μM FeSO4 alone.

[8] = 100 μM Glutamate + 10 nM substance
[9] = 100 μM Glutamate + 100 nM substance

Structure (SMILES): COc1cc2c(c(OC)c1OC)-c1ccc(OC)c(=O)cc1[C@@H](NC(C)=O)CC2 [Colchicine, colchicine, reference compound]
- effect on glutamate neurotoxicity [1]: ineffective
- effect on Aβ neurotoxicity [2]: did not protect neurons against Aβ toxicity
- effect on neuronal survival, alone ([3]; 100 nM, alone): reduced survival
- viability at 0.1 µM ([3]; 100 nM, alone, read-out: Neuron Survival (% of control), Alamar Blue Assay): 40 ± 5.2%
- viability at 0.1 µM ([3]; 50 μM Aβ + 100 nM substance, read-out: Neuron Survival (% of control), Alamar Blue Assay): 23 ± 2.8%
- viability at 0.1 µM ([3]; 100 μM Glutamate + 100 nM substance, read-out: Neuron Survival (% of control), Alamar Blue Assay): 12 ± 2.2%
- viability at 0.1 µM ([3]; read-out: Neuron Survival (% of control), Cell Counts, 100 nM, alone): 85 ± 1.9%
- effect on Aβ neurotoxicity [4]: exacerbated Aβ toxicity

Structure (SMILES): C=C1[C@@H](C)[C@H]2[C@H](Cc3ccccc3)NC(=O)[C@]23[C@H](OC(C)=O)/C=C/[C@@](C)(O)C(=O)[C@@H](C)C/C=C/[C@H]3[C@@H]1O [Cytochalasin D, cytochalasin D]
- effect on glutamate neurotoxicity [1]: significantly attenuated
- Neuron Survival (% of control), Alamar Blue Assay ([3]; 10 nM, alone): 97 ± 7.8 % of control
- Neuron Survival (% of control), Cell Counts ([3]; 10 nM, alone): 89 ± 2.4 % of control
- Neuron Survival (% of control), Alamar Blue Assay ([3]; 100 nM, alone): 91 ± 5.9 % of control
- Neuron Survival (% of control), Cell Counts ([3]; 100 nM, alone): 87 ± 2.2 % of control
- Neuron Survival (% of control), Alamar Blue Assay ([3]; 50 μM Aβ + 10 nM substance): 55 ± 2.5 % of control
- Neuron Survival (% of control), Alamar Blue Assay ([3]; 50 μM Aβ + 100 nM substance): 74 ± 1.3 % of control
- Neuron Survival (% of control), Alamar Blue Assay ([3]; 50 μM Aβ + 20 μM Glut with 100 nM substance): 63 ± 2.5 % of control
- Neuron Survival (% of control), Alamar Blue Assay [3, 8]: 43 ± 6.7 % of control
- Neuron Survival (% of control), Cell Counts [3, 8]: 54 ± 7.4 % of control
- Neuron Survival (% of control), Alamar Blue Assay [3, 9]: 42 ± 4.2 % of control
- Neuron Survival (% of control), Cell Counts [3, 9]: 45 ± 9.8 % of control
- effect on neuronal survival, alone ([3]; 1-100 nM, alone): no significant effect on neuronal survival
- effect on neuronal killing by hydrogen peroxide ([5]; 100 nM, 1 h pretreatment, 20 h): not altered; also recorded: does not protect neurons against hydrogen peroxide toxicity
- antioxidant activity ([5]; suggested from hydrogen peroxide test): little or no antioxidant activity
- effect on Aβ neurotoxicity [4]: essentially eliminated
- growth cone motility [6]: inhibit growth cone motility
- effect on neuronal loss induced by iron [7]: not significantly altered
